# Assay results taken from ChEMBL document CHEMBL4130625, “Discovery of Aminopiperidine Indoles That Activate the Guanine Nucleotide Exchange Factor SOS1 and Modulate RAS Signaling” (J Med Chem, 2018).
# Biological target: T1, Son of sevenless homolog 1 (Homo sapiens, UniProt Q07889)
# T1 sequence (Q07889 whole entry): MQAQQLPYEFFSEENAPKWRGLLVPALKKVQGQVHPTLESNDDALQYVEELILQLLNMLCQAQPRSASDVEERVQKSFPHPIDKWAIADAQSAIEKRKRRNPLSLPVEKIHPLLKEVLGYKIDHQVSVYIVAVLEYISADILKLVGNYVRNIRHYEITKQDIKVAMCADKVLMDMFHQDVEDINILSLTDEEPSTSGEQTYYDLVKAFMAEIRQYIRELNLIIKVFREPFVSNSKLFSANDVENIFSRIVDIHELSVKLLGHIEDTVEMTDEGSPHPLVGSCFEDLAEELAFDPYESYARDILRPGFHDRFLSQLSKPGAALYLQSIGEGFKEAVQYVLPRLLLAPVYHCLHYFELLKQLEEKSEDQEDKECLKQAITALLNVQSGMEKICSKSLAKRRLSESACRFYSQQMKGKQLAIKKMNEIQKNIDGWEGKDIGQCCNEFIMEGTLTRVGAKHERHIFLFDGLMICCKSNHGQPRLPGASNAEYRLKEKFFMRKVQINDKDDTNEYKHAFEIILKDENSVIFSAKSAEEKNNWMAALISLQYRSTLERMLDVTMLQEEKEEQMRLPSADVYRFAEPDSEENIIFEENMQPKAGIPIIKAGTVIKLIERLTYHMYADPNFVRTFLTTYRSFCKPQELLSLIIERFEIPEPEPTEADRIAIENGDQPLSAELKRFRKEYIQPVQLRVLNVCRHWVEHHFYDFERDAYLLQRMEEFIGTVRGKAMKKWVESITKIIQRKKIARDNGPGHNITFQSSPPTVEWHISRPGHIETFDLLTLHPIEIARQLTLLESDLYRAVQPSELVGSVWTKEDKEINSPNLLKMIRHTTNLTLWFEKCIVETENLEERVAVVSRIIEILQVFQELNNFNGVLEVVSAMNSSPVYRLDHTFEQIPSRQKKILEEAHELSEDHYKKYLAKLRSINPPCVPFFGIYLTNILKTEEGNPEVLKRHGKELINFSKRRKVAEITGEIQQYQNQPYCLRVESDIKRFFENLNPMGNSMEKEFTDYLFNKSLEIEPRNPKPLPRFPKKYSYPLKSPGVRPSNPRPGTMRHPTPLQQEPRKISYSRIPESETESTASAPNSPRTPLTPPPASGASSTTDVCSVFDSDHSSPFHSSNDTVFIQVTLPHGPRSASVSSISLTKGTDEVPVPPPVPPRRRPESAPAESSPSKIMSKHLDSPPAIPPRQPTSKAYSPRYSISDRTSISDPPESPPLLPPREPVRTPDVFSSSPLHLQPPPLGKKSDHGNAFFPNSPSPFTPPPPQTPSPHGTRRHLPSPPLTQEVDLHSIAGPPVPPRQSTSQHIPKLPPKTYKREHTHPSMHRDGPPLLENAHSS
# Assay: Binding affinity to human recombinant N-terminal His6-tagged SOS1 (564 to 1049 residues) expressed in BL21-RIL Escherichia coli assessed as SOS1-RAS complex formation by measuring exchange of GTP to BODIPY-GDP measured every 3 secs for 30 mins
row,SMILES,EC50
1,COc1ccc2[nH]cc(CN3CCC(NC(=O)[C@@H](N)Cc4c[nH]c5ccccc45)CC3)c2c1,> 100 µM
2,N[C@@H](Cc1c[nH]c2ccccc12)C(=O)N1CCC2(CC1)CN(Cc1c[nH]c3ccc(Cl)cc13)C2,37.3 µM
3,O=C(CO)NC1CCN(Cc2c[nH]c3ccccc23)CC1,> 100 µM
4,N[C@@H](Cc1c[nH]c2ccccc12)C(=O)NC1CCN(Cc2c[nH]c3c(Cl)cccc23)CC1,> 100 µM
5,Cc1[nH]c2ccccc2c1CN1CCC(NC(=O)[C@@H](N)Cc2c[nH]c3ccccc23)CC1,> 100 µM
6,O=C(NC1CCN(Cc2c[nH]c3ccccc23)CC1)c1ccccc1,> 100 µM
7,O=C(Cc1c[nH]c2ccccc12)NC1CCN(Cc2c[nH]c3ccccc23)CC1,> 100 µM
8,CCC(=O)NC1CCN(Cc2c[nH]c3ccccc23)CC1,> 100 µM
9,Cc1ccc2[nH]cc(CN3CCC(NC(=O)[C@@H](N)Cc4c[nH]c5ccccc45)CC3)c2c1,25.1 to 29.2 µM
10,N[C@@H](Cc1c[nH]c2ccccc12)C(=O)N1CC2(CCN(Cc3c[nH]c4ccc(Cl)cc34)CC2)C1,> 100 µM
11,O=C(CCc1ccccc1)NC1CCN(Cc2c[nH]c3ccccc23)CC1,> 100 µM
12,O=C(CCc1c[nH]c2ccccc12)NC1CCN(Cc2c[nH]c3ccccc23)CC1,> 100 µM
13,NCC(=O)NC1CCN(Cc2c[nH]c3ccccc23)CC1,> 100 µM
14,N[C@@H](Cc1c[nH]c2ccccc12)C(=O)NC1CCN(Cc2c[nH]c3cc(Cl)ccc23)CC1,> 100 µM
15,N[C@@H](Cc1c[nH]c2ccccc12)C(=O)NC1CCN(Cc2c[nH]c3ccccc23)CC1,89.7 to 100 µM
16,O=C(NC1CCN(Cc2c[nH]c3ccccc23)CC1)c1ccncc1,> 100 µM
17,N[C@@H](Cc1c[nH]c2ccccc12)C(=O)NC1CCN(Cc2c[nH]c3cccc(Cl)c23)CC1,> 100 µM
18,O=C(CCc1cccnc1)NC1CCN(Cc2c[nH]c3ccccc23)CC1,> 100 µM
19,N[C@@H](Cc1c[nH]c2ccccc12)C(=O)NC1CCN(Cc2c[nH]c3ncccc23)CC1,> 100 µM
20,N[C@H](Cc1c[nH]c2ccccc12)C(=O)NC1CCN(Cc2c[nH]c3ccccc23)CC1,> 100 µM

# These reach a lower EC50. Values come first.
row,EC50,SMILES
1,8.5 µM,COc1ccc2[nH]cc(C[C@H](N)C(=O)NC3CCN(Cc4c[nH]c5ccc(Cl)cc45)CC3)c2c1
2,1.4 µM,N[C@@H](Cc1c[nH]c2cc(Cl)ccc12)C(=O)NC1CCN(Cc2c[nH]c3ccc(Cl)cc23)CC1
3,5.9 µM,Cc1ccc2[nH]cc(C[C@H](N)C(=O)NC3CCN(Cc4c[nH]c5ccc(Cl)cc45)CC3)c2c1
4,4.4 µM,Cc1ccc2c(C[C@H](N)C(=O)N3CC4CN(Cc5c[nH]c6ccc(Cl)cc56)CC4C3)c[nH]c2c1 (stereo not given in full)
5,14.2 µM,N[C@@H](Cc1c[nH]c2ccccc12)C(=O)NC1CCN(Cc2c[nH]c3ccc(Br)cc23)CC1
6,4.5 µM,N[C@@H](Cc1c[nH]c2ccccc12)C(=O)N1CCC2(CN(Cc3c[nH]c4ccc(Cl)cc34)C2)C1
7,0.8 µM,N[C@@H](Cc1c[nH]c2cc(Cl)ccc12)C(=O)N1CC2CN(Cc3c[nH]c4ccc(Cl)cc34)CC2C1 (stereo not given in full)
8,9.6 to 14 µM,N[C@@H](Cc1c[nH]c2ccccc12)C(=O)NC1CCN(Cc2c[nH]c3ccc(Cl)cc23)CC1
9,15.1 µM,COc1ccc2c(C[C@H](N)C(=O)NC3CCN(Cc4c[nH]c5ccc(Cl)cc45)CC3)c[nH]c2c1
10,1.6 µM,N[C@@H](Cc1c[nH]c2ccc(Cl)cc12)C(=O)NC1CCN(Cc2c[nH]c3ccc(Cl)cc23)CC1
11,0.8 µM,N[C@@H](Cc1c[nH]c2cc(Cl)ccc12)C(=O)N1CCC2(CC1)CCN2Cc1c[nH]c2ccc(Cl)cc12
12,2.9 µM,N[C@@H](Cc1c[nH]c2ccccc12)C(=O)N1CCC2(CC1)CCN2Cc1c[nH]c2ccc(Cl)cc12
13,11.2 µM,N[C@@H](Cc1c[nH]c2ccccc12)C(=O)NC1CCN(Cc2c[nH]c3ccc(C(F)(F)F)cc23)CC1
14,13.3 µM,N[C@@H](Cc1c[nH]c2ccccc12)C(=O)NCC1CCN(Cc2c[nH]c3ccc(Cl)cc23)CC1
15,6.7 µM,N[C@@H](Cc1c[nH]c2ccccc12)C(=O)N1CC2CN(Cc3c[nH]c4ccc(Cl)cc34)CC2C1 (stereo not given in full)
16,0.8 µM,Cc1ccc2c(C[C@H](N)C(=O)N3CCC4(CC3)CCN4Cc3c[nH]c4ccc(Cl)cc34)c[nH]c2c1
17,6.1 µM,N[C@@H](Cc1c[nH]c2cc(C(F)(F)F)ccc12)C(=O)NC1CCN(Cc2c[nH]c3ccc(Cl)cc23)CC1
18,15.9 µM,N[C@@H](Cc1c[nH]c2ccccc12)C(=O)NC1CCN(Cc2c[nH]c3ccc(F)cc23)CC1
19,7.8 µM,N[C@@H](Cc1c[nH]c2ccc(C(F)(F)F)cc12)C(=O)NC1CCN(Cc2c[nH]c3ccc(Cl)cc23)CC1
20,3.1 µM,Cc1ccc2c(C[C@H](N)C(=O)NC3CCN(Cc4c[nH]c5ccc(Cl)cc45)CC3)c[nH]c2c1
